# Measurements from PubChem BioAssay AID2060354 (Molecular Pharmacology Branch, DTP, NCI, 2025).
# Tested on: 519858-162-T-J1-PDC spheroid growth inhibition
# Experiment: Anticancer human tumor 519858-162-T-J1-PDC patient-derived colon adenocarcinoma cell line growth inhibition [TAK]
# Conditions: spheroids with HUVEC and MSC; for IC50: curve of first compound; for viability, T/C: stronger effect = lower value
# Procedure, shortened: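 Drug combinations, each paired with TAK-243 or ipatasertib, were tested on multi-cell spheroids of 60% malignant cells, 25% HUVEC and 15% hMSC. Top concentrations were at or near the clinical Cmax (10 microM if undetermined), decreasing by half-log; viability is given as % test/control.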
# 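Note: spheroids exposed to drugs for 7 days.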
structure (smiles),measurement,setting,value
CCCS(=O)(=O)Nc1ccc(F)c(C(=O)c2c[nH]c3ncc(-c4ccc(Cl)cc4)cc23)c1F + CC(C)NCC(C(=O)N1CCN(c2ncnc3c2C(C)CC3O)CC1)c1ccc(Cl)cc1,IC50,second compound 0.3 µM,> 100 µM
same,IC50,second compound 0.949 µM,> 100 µM
same,IC50,second compound 3 µM,> 100 µM
same,IC50,second compound 9.49 µM,> 100 µM
same,IC50,second compound 30 µM,30.4 µM
same,"viability, T/C","second compound 0.3 µM, first compound 0.316 µM",85.8%
same,"viability, T/C","second compound 0.3 µM, first compound 1 µM",109%
same,"viability, T/C","second compound 0.3 µM, first compound 3.16 µM",95.8%
same,"viability, T/C","second compound 0.3 µM, first compound 10 µM",109%
same,"viability, T/C","second compound 0.3 µM, first compound 31.6 µM",90.6%
same,"viability, T/C","second compound 0.3 µM, first compound 100 µM",103%
same,"viability, T/C","second compound 0.949 µM, first compound 0.316 µM",74.8%
same,"viability, T/C","second compound 0.949 µM, first compound 1 µM",99.7%
same,"viability, T/C","second compound 0.949 µM, first compound 3.16 µM",118%
same,"viability, T/C","second compound 0.949 µM, first compound 10 µM",83.1%
same,"viability, T/C","second compound 0.949 µM, first compound 31.6 µM",51%
same,"viability, T/C","second compound 0.949 µM, first compound 100 µM",99.9%
same,"viability, T/C","second compound 3 µM, first compound 0.316 µM",106%
same,"viability, T/C","second compound 3 µM, first compound 1 µM",102%
same,"viability, T/C","second compound 3 µM, first compound 3.16 µM",114%
same,"viability, T/C","second compound 3 µM, first compound 10 µM",82.8%
same,"viability, T/C","second compound 3 µM, first compound 31.6 µM",99.8%
same,"viability, T/C","second compound 3 µM, first compound 100 µM",113%
same,"viability, T/C","second compound 9.49 µM, first compound 0.316 µM",99.8%
same,"viability, T/C","second compound 9.49 µM, first compound 1 µM",103%
same,"viability, T/C","second compound 9.49 µM, first compound 3.16 µM",84.8%
same,"viability, T/C","second compound 9.49 µM, first compound 10 µM",88.1%
same,"viability, T/C","second compound 9.49 µM, first compound 31.6 µM",77.9%
same,"viability, T/C","second compound 9.49 µM, first compound 100 µM",96%
same,"viability, T/C","second compound 30 µM, first compound 0.316 µM",76.3%
same,"viability, T/C","second compound 30 µM, first compound 1 µM",101%
same,"viability, T/C","second compound 30 µM, first compound 3.16 µM",94.9%
same,"viability, T/C","second compound 30 µM, first compound 10 µM",61%
same,"viability, T/C","second compound 30 µM, first compound 31.6 µM",23.6%
same,"viability, T/C","second compound 30 µM, first compound 100 µM",75.5%
CC(C)CC(NC(=O)CNC(=O)c1cc(Cl)ccc1Cl)B1OC(=O)CC(CC(=O)O)(C(=O)O)O1 (stereo not given) + CC(C)NCC(C(=O)N1CCN(c2ncnc3c2C(C)CC3O)CC1)c1ccc(Cl)cc1,IC50,second compound 0.3 µM,> 0.1 µM
same,IC50,second compound 0.949 µM,> 0.1 µM
same,IC50,second compound 3 µM,> 0.1 µM
same,IC50,second compound 9.49 µM,> 0.1 µM
same,IC50,second compound 30 µM,> 0.1 µM
same,"viability, T/C","second compound 0.3 µM, first compound 0.000316 µM",94.4%
same,"viability, T/C","second compound 0.3 µM, first compound 0.001 µM",101%
same,"viability, T/C","second compound 0.3 µM, first compound 0.00316 µM",99%
same,"viability, T/C","second compound 0.3 µM, first compound 0.01 µM",79%
same,"viability, T/C","second compound 0.3 µM, first compound 0.0316 µM",95.9%
same,"viability, T/C","second compound 0.3 µM, first compound 0.1 µM",59.7%
same,"viability, T/C","second compound 0.949 µM, first compound 0.000316 µM",114%
same,"viability, T/C","second compound 0.949 µM, first compound 0.001 µM",91.7%
same,"viability, T/C","second compound 0.949 µM, first compound 0.00316 µM",79.5%
same,"viability, T/C","second compound 0.949 µM, first compound 0.01 µM",81.3%
same,"viability, T/C","second compound 0.949 µM, first compound 0.0316 µM",88%
same,"viability, T/C","second compound 0.949 µM, first compound 0.1 µM",67.7%
same,"viability, T/C","second compound 3 µM, first compound 0.000316 µM",101%
same,"viability, T/C","second compound 3 µM, first compound 0.001 µM",88.5%
same,"viability, T/C","second compound 3 µM, first compound 0.00316 µM",92.5%
same,"viability, T/C","second compound 3 µM, first compound 0.01 µM",71.3%
same,"viability, T/C","second compound 3 µM, first compound 0.0316 µM",81.7%
same,"viability, T/C","second compound 3 µM, first compound 0.1 µM",82.9%
same,"viability, T/C","second compound 9.49 µM, first compound 0.000316 µM",90%
same,"viability, T/C","second compound 9.49 µM, first compound 0.001 µM",100%
same,"viability, T/C","second compound 9.49 µM, first compound 0.00316 µM",80.4%
same,"viability, T/C","second compound 9.49 µM, first compound 0.01 µM",77.2%
same,"viability, T/C","second compound 9.49 µM, first compound 0.0316 µM",92.5%
same,"viability, T/C","second compound 9.49 µM, first compound 0.1 µM",71.1%
same,"viability, T/C","second compound 30 µM, first compound 0.000316 µM",90.5%
same,"viability, T/C","second compound 30 µM, first compound 0.001 µM",87.7%
same,"viability, T/C","second compound 30 µM, first compound 0.00316 µM",108%
same,"viability, T/C","second compound 30 µM, first compound 0.01 µM",79.5%
same,"viability, T/C","second compound 30 µM, first compound 0.0316 µM",73.3%
same,"viability, T/C","second compound 30 µM, first compound 0.1 µM",78.6%
